Read-outs that look alike come from different tables or passages of the source.
Legend:
Experiment in all cases: SelectScreen Kinase Profiling, single point inhibition and IC50 for off-target kinases
Type in all cases: biochemical
off-target kinases [1] = molecular target: off-target kinases (Homo sapiens, UniProt O43353); details: RIPK2, LanthaScreen Binding
off-target kinases [2] = molecular target: off-target kinases (Homo sapiens, UniProt P34947); details: GRK5, ZLYTE, ATP Km app
off-target kinases [3] = molecular target: off-target kinases (Homo sapiens, UniProt P00519, M351T); details: ABL1 M351T, LanthaScreen Binding
off-target kinases [4] = molecular target: T1, off-target kinases (Homo sapiens, UniProt Q06418); details: TYRO3 (RSE), ZLYTE, ATP Km app
T1 sequence (Q06418 41-890): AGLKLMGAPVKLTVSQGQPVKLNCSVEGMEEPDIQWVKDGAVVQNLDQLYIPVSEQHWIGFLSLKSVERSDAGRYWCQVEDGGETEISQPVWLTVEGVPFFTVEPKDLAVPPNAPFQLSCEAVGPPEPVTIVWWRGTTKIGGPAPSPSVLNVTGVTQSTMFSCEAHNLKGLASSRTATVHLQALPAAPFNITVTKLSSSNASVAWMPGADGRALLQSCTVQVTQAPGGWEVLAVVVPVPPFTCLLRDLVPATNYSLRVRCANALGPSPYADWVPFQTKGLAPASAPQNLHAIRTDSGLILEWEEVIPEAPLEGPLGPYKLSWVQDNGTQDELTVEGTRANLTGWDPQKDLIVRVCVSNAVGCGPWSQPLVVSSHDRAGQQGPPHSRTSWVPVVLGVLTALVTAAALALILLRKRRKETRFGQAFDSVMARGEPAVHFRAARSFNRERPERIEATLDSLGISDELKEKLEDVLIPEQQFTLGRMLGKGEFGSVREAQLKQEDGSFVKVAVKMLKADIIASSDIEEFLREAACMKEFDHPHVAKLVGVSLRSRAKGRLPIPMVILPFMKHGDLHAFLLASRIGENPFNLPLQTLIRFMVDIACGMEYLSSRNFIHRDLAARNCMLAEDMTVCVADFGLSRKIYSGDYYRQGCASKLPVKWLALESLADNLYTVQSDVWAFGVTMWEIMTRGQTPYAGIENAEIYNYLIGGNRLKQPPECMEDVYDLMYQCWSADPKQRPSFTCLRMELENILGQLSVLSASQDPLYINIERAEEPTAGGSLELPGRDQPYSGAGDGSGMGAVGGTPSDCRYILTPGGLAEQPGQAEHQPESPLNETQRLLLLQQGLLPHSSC

off-target kinases [5] = molecular target: off-target kinases (Homo sapiens, UniProt Q9BYT3); details: STK33, LanthaScreen Binding
off-target kinases [6] = molecular target: off-target kinases (Homo sapiens, UniProt Q9H3Y6); details: SRMS (Srm), ZLYTE, ATP Km app
off-target kinases [7] = molecular target: off-target kinases (Homo sapiens, UniProt P54756); details: EPHA5, ZLYTE, ATP Km app
off-target kinases [8] = molecular target: off-target kinases (Homo sapiens, UniProt Q00526); details: CDK3/cyclin E1, LanthaScreen Binding
off-target kinases [9] = molecular target: off-target kinases (Homo sapiens, UniProt P14616); details: INSRR (IRR), ZLYTE, ATP Km app
off-target kinases (Homo sapiens, UniProt P14616), sequence (P14616 27-1297): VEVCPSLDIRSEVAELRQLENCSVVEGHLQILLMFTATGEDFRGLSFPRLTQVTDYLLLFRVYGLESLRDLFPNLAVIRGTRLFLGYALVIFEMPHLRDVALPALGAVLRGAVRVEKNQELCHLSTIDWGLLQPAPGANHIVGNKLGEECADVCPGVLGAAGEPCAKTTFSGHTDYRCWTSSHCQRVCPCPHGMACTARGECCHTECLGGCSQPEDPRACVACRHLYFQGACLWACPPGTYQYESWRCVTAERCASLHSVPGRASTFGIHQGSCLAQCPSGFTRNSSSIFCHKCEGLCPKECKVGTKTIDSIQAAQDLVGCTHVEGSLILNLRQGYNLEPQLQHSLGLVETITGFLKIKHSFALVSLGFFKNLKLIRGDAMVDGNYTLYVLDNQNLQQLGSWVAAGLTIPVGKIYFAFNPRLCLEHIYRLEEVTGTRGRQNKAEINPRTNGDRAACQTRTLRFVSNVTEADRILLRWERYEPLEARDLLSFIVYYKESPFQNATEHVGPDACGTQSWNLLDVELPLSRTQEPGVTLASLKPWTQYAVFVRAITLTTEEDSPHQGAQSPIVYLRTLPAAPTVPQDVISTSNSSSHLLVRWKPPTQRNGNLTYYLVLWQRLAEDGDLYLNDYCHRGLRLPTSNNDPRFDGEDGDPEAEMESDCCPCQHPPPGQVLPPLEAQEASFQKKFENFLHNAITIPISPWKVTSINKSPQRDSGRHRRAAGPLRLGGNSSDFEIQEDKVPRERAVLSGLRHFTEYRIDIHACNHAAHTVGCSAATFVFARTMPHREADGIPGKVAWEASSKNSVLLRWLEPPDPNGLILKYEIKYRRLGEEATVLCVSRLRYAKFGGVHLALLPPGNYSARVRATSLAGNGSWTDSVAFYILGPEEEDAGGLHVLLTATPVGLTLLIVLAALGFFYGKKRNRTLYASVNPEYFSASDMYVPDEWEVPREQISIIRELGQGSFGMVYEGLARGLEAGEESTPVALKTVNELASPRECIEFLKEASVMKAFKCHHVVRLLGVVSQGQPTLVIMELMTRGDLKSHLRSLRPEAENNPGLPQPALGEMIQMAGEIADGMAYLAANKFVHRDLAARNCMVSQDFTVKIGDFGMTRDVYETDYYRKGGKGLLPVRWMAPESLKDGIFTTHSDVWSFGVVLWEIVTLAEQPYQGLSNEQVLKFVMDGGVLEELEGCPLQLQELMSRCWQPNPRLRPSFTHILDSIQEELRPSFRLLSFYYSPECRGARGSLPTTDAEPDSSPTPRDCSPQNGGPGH

off-target kinases (Homo sapiens, UniProt Q9H3Y6), sequence (Q9H3Y6 whole entry): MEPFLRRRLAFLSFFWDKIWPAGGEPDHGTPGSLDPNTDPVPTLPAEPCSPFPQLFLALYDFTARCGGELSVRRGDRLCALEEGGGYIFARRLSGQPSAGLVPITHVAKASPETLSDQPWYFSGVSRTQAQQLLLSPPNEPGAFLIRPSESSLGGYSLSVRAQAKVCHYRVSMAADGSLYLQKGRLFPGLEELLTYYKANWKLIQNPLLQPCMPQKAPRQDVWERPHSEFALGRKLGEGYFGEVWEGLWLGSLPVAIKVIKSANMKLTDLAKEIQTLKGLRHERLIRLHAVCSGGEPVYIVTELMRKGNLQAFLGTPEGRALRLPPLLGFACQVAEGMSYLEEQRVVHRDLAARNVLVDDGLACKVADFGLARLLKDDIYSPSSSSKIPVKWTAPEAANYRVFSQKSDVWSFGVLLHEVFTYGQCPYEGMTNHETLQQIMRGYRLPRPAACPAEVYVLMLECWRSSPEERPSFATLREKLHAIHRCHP
off-target kinases (Homo sapiens, UniProt O43353), sequence (O43353 whole entry): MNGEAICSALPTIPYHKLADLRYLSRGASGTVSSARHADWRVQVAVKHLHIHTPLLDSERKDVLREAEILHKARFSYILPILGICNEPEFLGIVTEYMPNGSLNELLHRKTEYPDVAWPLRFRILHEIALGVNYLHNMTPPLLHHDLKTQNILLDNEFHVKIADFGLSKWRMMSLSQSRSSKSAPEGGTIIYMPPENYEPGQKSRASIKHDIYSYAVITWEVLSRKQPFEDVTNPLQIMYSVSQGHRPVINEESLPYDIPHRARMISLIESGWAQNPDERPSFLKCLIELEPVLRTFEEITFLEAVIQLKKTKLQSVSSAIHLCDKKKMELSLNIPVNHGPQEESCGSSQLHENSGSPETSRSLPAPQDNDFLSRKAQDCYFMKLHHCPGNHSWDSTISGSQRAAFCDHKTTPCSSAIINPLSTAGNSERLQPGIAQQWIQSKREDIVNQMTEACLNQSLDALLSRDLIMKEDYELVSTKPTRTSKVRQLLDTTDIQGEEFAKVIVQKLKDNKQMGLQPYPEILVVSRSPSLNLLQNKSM
off-target kinases (Homo sapiens, UniProt P54756), sequence (P54756 25-1037): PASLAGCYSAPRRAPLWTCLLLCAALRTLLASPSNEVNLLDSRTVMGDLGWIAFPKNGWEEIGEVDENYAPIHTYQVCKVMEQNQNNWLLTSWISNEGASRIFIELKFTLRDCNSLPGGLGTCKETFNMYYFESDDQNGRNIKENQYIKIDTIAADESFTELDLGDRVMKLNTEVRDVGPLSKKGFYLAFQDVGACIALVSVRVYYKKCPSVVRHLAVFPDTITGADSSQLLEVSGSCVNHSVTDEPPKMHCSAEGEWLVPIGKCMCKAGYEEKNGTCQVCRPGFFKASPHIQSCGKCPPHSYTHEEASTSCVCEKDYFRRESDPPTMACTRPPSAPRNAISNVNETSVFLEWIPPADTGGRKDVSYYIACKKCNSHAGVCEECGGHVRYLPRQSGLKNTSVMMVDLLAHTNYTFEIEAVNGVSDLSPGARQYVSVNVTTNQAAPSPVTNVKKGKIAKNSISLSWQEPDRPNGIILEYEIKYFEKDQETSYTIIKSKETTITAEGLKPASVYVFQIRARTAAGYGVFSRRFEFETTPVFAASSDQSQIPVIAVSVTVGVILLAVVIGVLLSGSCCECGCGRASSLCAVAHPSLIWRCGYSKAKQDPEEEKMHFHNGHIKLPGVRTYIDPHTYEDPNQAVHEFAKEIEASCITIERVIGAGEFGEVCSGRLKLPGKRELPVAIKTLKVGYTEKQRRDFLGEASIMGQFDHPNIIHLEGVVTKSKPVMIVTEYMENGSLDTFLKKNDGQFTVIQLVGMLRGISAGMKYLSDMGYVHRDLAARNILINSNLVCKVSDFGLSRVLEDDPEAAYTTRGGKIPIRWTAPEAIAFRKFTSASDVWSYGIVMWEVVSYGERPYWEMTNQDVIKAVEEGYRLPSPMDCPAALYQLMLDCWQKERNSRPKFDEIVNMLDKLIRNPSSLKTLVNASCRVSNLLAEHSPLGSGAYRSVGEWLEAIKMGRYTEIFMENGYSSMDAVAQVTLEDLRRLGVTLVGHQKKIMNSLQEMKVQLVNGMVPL
off-target kinases (Homo sapiens, UniProt Q9BYT3), sequence (Q9BYT3 whole entry): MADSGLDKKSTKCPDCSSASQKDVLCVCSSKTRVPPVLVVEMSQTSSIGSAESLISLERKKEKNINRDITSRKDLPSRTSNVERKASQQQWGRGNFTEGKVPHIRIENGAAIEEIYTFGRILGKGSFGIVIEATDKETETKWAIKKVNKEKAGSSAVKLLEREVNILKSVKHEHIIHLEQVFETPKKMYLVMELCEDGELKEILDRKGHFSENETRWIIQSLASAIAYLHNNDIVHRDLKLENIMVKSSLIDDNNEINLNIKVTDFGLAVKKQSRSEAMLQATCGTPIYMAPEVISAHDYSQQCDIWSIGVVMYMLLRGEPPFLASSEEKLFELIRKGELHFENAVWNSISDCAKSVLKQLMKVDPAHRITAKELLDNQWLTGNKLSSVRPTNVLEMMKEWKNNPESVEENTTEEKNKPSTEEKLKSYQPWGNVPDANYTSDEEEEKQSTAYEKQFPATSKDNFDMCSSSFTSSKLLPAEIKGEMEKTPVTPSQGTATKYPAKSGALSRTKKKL
off-target kinases (Homo sapiens, UniProt Q00526), sequence (Q00526 whole entry): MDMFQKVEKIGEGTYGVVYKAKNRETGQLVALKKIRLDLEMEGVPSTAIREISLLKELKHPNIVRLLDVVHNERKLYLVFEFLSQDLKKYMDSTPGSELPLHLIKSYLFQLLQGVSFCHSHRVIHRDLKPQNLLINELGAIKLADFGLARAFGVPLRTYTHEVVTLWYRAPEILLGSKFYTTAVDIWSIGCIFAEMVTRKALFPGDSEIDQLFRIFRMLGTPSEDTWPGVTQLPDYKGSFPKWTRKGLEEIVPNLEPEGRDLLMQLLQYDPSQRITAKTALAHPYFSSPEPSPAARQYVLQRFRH
off-target kinases (Homo sapiens, UniProt P34947), sequence (P34947 whole entry): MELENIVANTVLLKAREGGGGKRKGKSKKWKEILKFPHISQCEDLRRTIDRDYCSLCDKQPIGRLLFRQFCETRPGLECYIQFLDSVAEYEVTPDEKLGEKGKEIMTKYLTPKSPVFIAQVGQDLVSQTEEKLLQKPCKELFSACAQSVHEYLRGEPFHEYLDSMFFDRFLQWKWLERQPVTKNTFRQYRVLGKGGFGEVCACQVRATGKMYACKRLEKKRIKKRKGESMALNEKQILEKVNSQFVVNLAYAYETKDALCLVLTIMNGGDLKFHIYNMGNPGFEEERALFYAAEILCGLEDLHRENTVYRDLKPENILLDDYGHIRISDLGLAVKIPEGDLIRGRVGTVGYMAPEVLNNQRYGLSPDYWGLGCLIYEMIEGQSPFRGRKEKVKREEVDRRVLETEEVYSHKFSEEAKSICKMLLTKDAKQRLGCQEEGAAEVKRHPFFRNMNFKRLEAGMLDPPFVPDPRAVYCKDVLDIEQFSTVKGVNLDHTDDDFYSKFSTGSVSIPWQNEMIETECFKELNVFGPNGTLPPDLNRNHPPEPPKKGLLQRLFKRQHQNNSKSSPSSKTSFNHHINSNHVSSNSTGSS

In the case of `N#Cc1cc(-c2ncnc(Nc3ccc(N4CCN(C5COC5)CC4)cc3)n2)ccc1OC1CCOCC1` [Compound 1, 5-(4-((4-(4-(oxetan-3-yl)piperazin-1-yl)phenyl)amino)-1,3,5-triazin-2-yl)-2-((tetrahydro-2H-pyran-4-yl)oxy)benzonitrile], the inhibition (off-target kinases [1]; read-out: % Inhibition 1) is reported as 84%, the inhibition (off-target kinases [1]; read-out: % Inhibition 2) is reported as 86% and the inhibition (off-target kinases [1]; read-out: % Inhibition Avg) is reported as 85%. The inhibition (off-target kinases [2]; read-out: % Inhibition 1) was 5%, the inhibition (off-target kinases [2]; read-out: % Inhibition 2) was -10% and the inhibition (off-target kinases [2]; read-out: % Inhibition Avg) was -3%. For the same compound, the inhibition (off-target kinases [3]; read-out: % Inhibition 1) was 65%, the inhibition (off-target kinases [3]; read-out: % Inhibition 2) was 69% and the inhibition (off-target kinases [3]; read-out: % Inhibition Avg) was 67%. The inhibition (off-target kinases [4]; read-out: % Inhibition 1) was 42%, the inhibition (off-target kinases [4]; read-out: % Inhibition 2) was 39% and the inhibition (off-target kinases [4]; read-out: % Inhibition Avg) was 41%. It also gave an inhibition (off-target kinases [5]; read-out: % Inhibition 1) of 59%, an inhibition (off-target kinases [5]; read-out: % Inhibition 2) of 55% and an inhibition (off-target kinases [5]; read-out: % Inhibition Avg) of 57%. For the same compound, the inhibition (off-target kinases [6]; read-out: % Inhibition 1) was 5%, the inhibition (off-target kinases [6]; read-out: % Inhibition 2) was 3% and the inhibition (off-target kinases [6]; read-out: % Inhibition Avg) was 4%. For the same compound, the inhibition (off-target kinases [7]; read-out: % Inhibition 1) was 3%, the inhibition (off-target kinases [7]; read-out: % Inhibition 2) was 4% and the inhibition (off-target kinases [7]; read-out: % Inhibition Avg) was 3%. It also gave an inhibition (off-target kinases [8]; read-out: % Inhibition 1) of 2%, an inhibition (off-target kinases [8]; read-out: % Inhibition 2) of 9% and an inhibition (off-target kinases [8]; read-out: % Inhibition Avg) of 6%. For the same compound, the inhibition (off-target kinases [9]; read-out: % Inhibition 1) was 5%, the inhibition (off-target kinases [9]; read-out: % Inhibition 2) was 4% and the inhibition (off-target kinases [9]; read-out: % Inhibition Avg) was 4%.
